Assay results taken from ChEMBL document CHEMBL1131240, “Novel benzothiazolin-2-one and benzoxazin-3-one arylpiperazine derivatives with mixed 5HT1A/D2 affinity as potential atypical antipsychotics” (J Med Chem, 1998).
pIC50: −log10 of the molar value.

What was measured:
[1] = biological target: 5-hydroxytryptamine receptor 1B (Rattus norvegicus, UniProt P28564); assay: Affinity towards 5-hydroxytryptamine 1B receptor in membranes from rat frontal cortex using [3H]5-HT; assay type: tissue-based
[2] = biological target: 5-hydroxytryptamine receptor 2A (Bos taurus, UniProt Q75Z89); assay: Affinity towards 5-hydroxytryptamine 2A receptor in membranes from bovine frontal cortex using [3H]ketanserin; assay type: tissue-based
[3] = biological target: T1, Alpha-1A adrenergic receptor (Bos taurus, UniProt P18130); assay: Affinity towards Alpha-1A adrenergic receptor in membranes from bovine frontal cortex using [3H]prazosin; assay type: tissue-based
T1 sequence (P18130 whole entry): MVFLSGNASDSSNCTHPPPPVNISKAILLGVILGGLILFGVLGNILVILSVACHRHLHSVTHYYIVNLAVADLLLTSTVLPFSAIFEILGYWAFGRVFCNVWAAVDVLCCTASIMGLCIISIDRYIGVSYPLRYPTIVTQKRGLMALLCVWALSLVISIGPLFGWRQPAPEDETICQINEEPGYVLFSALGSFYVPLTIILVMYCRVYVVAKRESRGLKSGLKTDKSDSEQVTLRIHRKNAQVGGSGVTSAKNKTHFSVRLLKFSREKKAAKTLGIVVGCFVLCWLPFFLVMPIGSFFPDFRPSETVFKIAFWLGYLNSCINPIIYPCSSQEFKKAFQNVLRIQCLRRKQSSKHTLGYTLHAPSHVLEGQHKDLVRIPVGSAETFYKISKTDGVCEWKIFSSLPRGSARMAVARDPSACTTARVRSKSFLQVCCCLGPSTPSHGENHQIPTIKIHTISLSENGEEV

Mus musculus [4] = assay: Tail suspension test in mice, dose(mg/Kg ip) = 4;duration of immobility(% vs controls); assay type: functional
Mus musculus [5] = assay: Compound was evaluated in vivo antagonism of mescaline-induced scratching(% vs controls), dose(mg/Kg ip)=4; assay type: functional
Mus musculus [6] = assay: Compound was evaluated in vivo antagonism of mescaline-induced scratching(% vs controls), dose(mg/Kg ip)=0.25; assay type: functional
Mus musculus [7] = assay: Compound was evaluated in vivo antagonism of mescaline-induced scratching(% vs controls), dose(mg/Kg ip)=1; assay type: functional
Rattus norvegicus [8] = assay: Antagonism of SKF 10047 -induced hypermotility (% vs controls) dose(mg/Kg po) = 8; assay type: functional
Rattus norvegicus [9] = assay: Antagonism of PCP-induced stereotypies (%vs controls), dose(mg/Kg po) = 0.5; assay type: functional
Rattus norvegicus [10] = assay: Antagonism of PCP-induced stereotypies (%vs controls), dose(mg/Kg po) = 2; assay type: functional
Rattus norvegicus [11] = assay: Antagonism of PCP-induced stereotypies (%vs controls), dose(mg/Kg po) = 8; assay type: functional
Rattus norvegicus [12] = assay: Antagonism of SKF 10047 -induced hypermotility (% vs controls) dose(mg/Kg po) = 0.5; assay type: functional
Rattus norvegicus [13] = assay: effects on Sidman Avoidance performance in rats, number of escape failure (absolute change from control), p<0.01, dose(mg/Kg po) =32; assay type: functional
Rattus norvegicus [14] = assay: effects on Sidman Avoidance performance in rats, number of escape failure (absolute change from control),n=10 animals per group, dose(mg/Kg po) =16; assay type: functional
Rattus norvegicus [15] = assay: effects on Sidman Avoidance performance in rats, number of shocks (absolute change from control), p<0.001, dose(mg/Kg po) =32; assay type: functional
Rattus norvegicus [16] = assay: effects on Sidman Avoidance performance in rats, number of shocks (absolute change from control),n=10 animals per group, dose(mg/Kg po) =16; assay type: functional
Rattus norvegicus [17] = assay: effects on Sidman Avoidance performance in rats, number of escape failure (absolute change from control), dose(mg/Kg po) =8; assay type: functional
Rattus norvegicus [18] = assay: effects on Sidman Avoidance performance in rats, number of Avoidance performance(% change from control) p<0.001 dose(mg/Kg po) =32; assay type: functional
Rattus norvegicus [19] = assay: effects on Sidman Avoidance performance in rats, number of Avoidance performance(% change from control), p<0.01,dose(mg/Kg po) =16; assay type: functional
Rattus norvegicus [20] = assay: Effects on Sidman Avoidance performance in rats, number of Avoidance performance (% change from control), dose (mg/Kg po) = 8; assay type: functional
Rattus norvegicus [21] = assay: Effects on Sidman Avoidance performance in rats, number of shocks (absolute change from control), dose (mg/Kg po) =8; assay type: functional
Mus musculus [22] = assay: Compound was evaluated in vivo antagonism of mescaline-induced scratching(% vs controls), dose(mg/Kg ip)=2; assay type: functional
Mus musculus [23] = assay: Compound was evaluated in vivo antagonism of mescaline-induced scratching(% vs controls), dose(mg/Kg ip)=1, p<0.05
Mus musculus [24] = assay: Compound was evaluated in vivo antagonism of mescaline-induced scratching(% vs controls), dose(mg/Kg ip)=4, p<0.001; assay type: functional
Mus musculus [25] = assay: Compound was evaluated in vivo antagonism of mescaline-induced scratching(% vs controls), dose(mg/Kg ip)=2, ns
Mus musculus [26] = assay: Compound was evaluated in vivo antagonism of mescaline-induced scratching(% vs controls), dose(mg/Kg ip)=8, p<0.001; assay type: functional
Rattus norvegicus [27] = assay: effects on Sidman Avoidance performance in rats, number of shocks (absolute change from control), p<0.001, dose(mg/Kg po) =1; assay type: functional
Rattus norvegicus [28] = assay: effects on Sidman Avoidance performance in rats, number of escape failure (absolute change from control), p<0.01, dose(mg/Kg po) =1; assay type: functional
Rattus norvegicus [29] = assay: Antagonism of SKF 10047 -induced hypermotility (% vs controls) dose(mg/Kg po) = 1

Chain of 5-hydroxytryptamine receptor 2A (Q75Z89 whole entry): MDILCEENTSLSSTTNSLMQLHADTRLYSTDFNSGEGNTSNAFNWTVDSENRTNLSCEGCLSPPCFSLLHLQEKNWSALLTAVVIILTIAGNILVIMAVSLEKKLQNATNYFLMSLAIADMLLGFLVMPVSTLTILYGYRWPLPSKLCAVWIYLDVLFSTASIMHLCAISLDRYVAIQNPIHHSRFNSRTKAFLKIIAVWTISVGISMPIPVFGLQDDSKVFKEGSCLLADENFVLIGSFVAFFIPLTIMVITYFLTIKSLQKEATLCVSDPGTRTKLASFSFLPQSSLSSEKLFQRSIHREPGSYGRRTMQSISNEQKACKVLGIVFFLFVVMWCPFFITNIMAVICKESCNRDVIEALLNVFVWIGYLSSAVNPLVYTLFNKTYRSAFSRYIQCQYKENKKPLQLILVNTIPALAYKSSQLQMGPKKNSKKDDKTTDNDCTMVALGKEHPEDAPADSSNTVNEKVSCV
Chain of 5-hydroxytryptamine receptor 1B (P28564 whole entry): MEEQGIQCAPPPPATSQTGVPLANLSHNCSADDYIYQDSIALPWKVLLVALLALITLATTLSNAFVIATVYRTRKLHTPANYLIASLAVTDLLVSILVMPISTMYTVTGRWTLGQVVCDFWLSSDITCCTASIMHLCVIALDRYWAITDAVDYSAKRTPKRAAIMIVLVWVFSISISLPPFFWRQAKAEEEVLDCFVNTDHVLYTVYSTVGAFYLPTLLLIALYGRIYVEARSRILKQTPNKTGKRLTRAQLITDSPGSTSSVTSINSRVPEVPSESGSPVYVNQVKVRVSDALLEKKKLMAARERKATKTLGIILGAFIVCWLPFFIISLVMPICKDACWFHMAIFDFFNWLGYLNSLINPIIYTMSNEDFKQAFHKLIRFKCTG

## COc1ccccc1N1CCN(CCCc2ccc3nc(O)sc3c2)CC1
[1]
  pIC50: 7.21
[2]
  pIC50: 6.54
[3]
  pIC50: 9.00
Mus musculus [4]
  Duration of immobility: 99
Mus musculus [5]
  Activity: 96

## COc1ccccc1N1CCN(CCc2ccc3c(c2)sc(=O)n3C)CC1
[1]
  pIC50: 6.52
[2]
  pIC50: 6.30
[3]
  pIC50: 8.00
Mus musculus [6]
  Activity: 92
Mus musculus [7]
  Activity: 100
Mus musculus [4]
  Duration of immobility: 89
Rattus norvegicus [8]
  Hypermotility: 71
Rattus norvegicus [9]
  Hypermotility: 12
Rattus norvegicus [10]
  Hypermotility: 2
Rattus norvegicus [11]
  Hypermotility: 21
Rattus norvegicus [12]
  Hypermotility: 39
Rattus norvegicus [13]
  No. of escape failure: 63.6
Rattus norvegicus [14]
  No. of escape failure: 18.5
Rattus norvegicus [15]
  No. of shocks: 87.8
Rattus norvegicus [16]
  No. of shocks: 23.8
Rattus norvegicus [17]
  No. of escape failure: 5.8
Rattus norvegicus [18]
  No. of avoidance: 78
Rattus norvegicus [19]
  No. of avoidance: 38
Rattus norvegicus [20]
  No. of avoidance: 12
Rattus norvegicus [21]
  No. of shocks: 7.3

## COc1ccccc1N1CCN(CCCc2ccc3c(c2)sc(=O)n3C)CC1
[1]
  pIC50: 6.44
[2]
  pIC50: 6.04
[3]
  pIC50: 8.22
Mus musculus [22]
  Activity: 73

## COc1ccccc1N1CCN(CCc2ccc3c(c2)OCC(=O)N3C)CC1
[1]
  pIC50: 6.74
[2]
  pIC50: 6.22
[3]
  pIC50: 9.30

## Cn1c(=O)sc2cc(CCN3CCN(c4cccc(C(F)(F)F)c4)CC3)ccc21
[1]
  pIC50: 7.15
[2]
  pIC50: 6.22
[3]
  pIC50: 6.40

## Oc1nc2ccc(CCN3CCN(c4ccccc4)CC3)cc2s1
[1]
  pIC50: 6.52
[2]
  pIC50: 7.40

## O=c1[nH]c2ccc(CCN3CCN(c4cccc(C(F)(F)F)c4)CC3)cc2s1
[1]
  pIC50: 6.22
[2]
  pIC50: 6.70
[3]
  pIC50: 7.05

## COc1ccccc1N1CCN(CCCCc2ccc3c(c2)OCC(=O)N3C)CC1
[2]
  pIC50: 6.08
[3]
  pIC50: 7.70
Mus musculus [4]
  Duration of immobility: 124
Mus musculus [23]
  Activity: 81

## CN1C(=O)COc2cc(CCN3CCN(c4cccc(C(F)(F)F)c4)CC3)ccc21
[1]
  pIC50: 6.34
[2]
  pIC50: 6.21
[3]
  pIC50: 7.07

## Cn1c(=O)sc2cc(CCN3CCN(c4ccc(F)cc4)CC3)ccc21
[1]
  pIC50: 5.52
[2]
  pIC50: 6.70
[3]
  pIC50: 7.52

## Cn1c(=O)sc2cc(CCN3CCN(c4ccccc4O)CC3)ccc21
[1]
  pIC50: 7.51
[2]
  pIC50: 5.96

## COc1ccccc1N1CCN(CCc2ccc3nc(O)sc3c2)CC1
[1]
  pIC50: 7.70
[2]
  pIC50: 6.52
[3]
  pIC50: 9.22

## Cn1c(=O)sc2cc(CCCCN3CCN(c4cccc(C(F)(F)F)c4)CC3)ccc21
[1]
  pIC50: 6.00
[2]
  pIC50: 6.40
[3]
  pIC50: 6.70

## COc1ccccc1N1CCN(CCCCc2ccc3c(c2)sc(=O)n3C)CC1
[1]
  pIC50: 6.52
[2]
  pIC50: 6.00
[3]
  pIC50: 7.52
Mus musculus [4]
  Duration of immobility: 36

## Oc1nc2ccc(CCN3CCN(c4ccccc4O)CC3)cc2s1
[1]
  pIC50: 6.59
[2]
  pIC50: 6.28
Mus musculus [4]
  Duration of immobility: 92
Mus musculus [24]
  Activity: 97
Mus musculus [25]
  Activity: 71

## Cn1c(=O)sc2cc(CCN3CCN(c4ccccc4)CC3)ccc21
[1]
  pIC50: 6.70
[2]
  pIC50: 7.15
[3]
  pIC50: < 7.00

## CN1C(=O)COc2cc(CCCCN3CCN(c4cccc(C(F)(F)F)c4)CC3)ccc21
[1]
  pIC50: 6.55
[2]
  pIC50: 6.21
[3]
  pIC50: 7.52
Mus musculus [26]
  Activity: 87
Mus musculus [25]
  Activity: 60

## O=c1[nH]c2ccc(CCCCN3CCN(c4cccc(C(F)(F)F)c4)CC3)cc2s1
[1]
  pIC50: 6.40
[2]
  pIC50: 6.24
[3]
  pIC50: 7.35

## COc1ccccc1N1CCN(CCCCc2ccc3[nH]c(=O)sc3c2)CC1
[1]
  pIC50: 6.70
[2]
  pIC50: 6.82
[3]
  pIC50: 9.09

## CN1CCN(C2=Nc3cc(Cl)ccc3Nc3ccccc32)CC1 [CLOZAPINE]
Mus musculus [4]
  Duration of immobility: 90
Mus musculus [24]
  Activity: 99
Rattus norvegicus [13]
  No. of escape failure: 53.8
Rattus norvegicus [15]
  No. of shocks: 71.1

## O=C(CCCN1CCC(O)(c2ccc(Cl)cc2)CC1)c1ccc(F)cc1 [HALOPERIDOL]
Mus musculus [4]
  Duration of immobility: 65
Rattus norvegicus [27]
  No. of shocks: 99.7
Rattus norvegicus [28]
  No. of escape failure: 84.6
Rattus norvegicus [29]
  Hypermotility: 94
